{"source": "patent US4788304A", "about": "“Phospholipase A2 inhibitors” (American Home Products Corporation, priority 1987, dated 1988)", "key": {"[1]": {"biological_target": "T1, human platelet PLA2 (Homo sapiens, UniProt P14555)", "T1 construct": "The PLA2 enriched supernatant fluid is removed and the amount of protein is determined by the Lowry method; from tissue; host or cells: expired human platelets from the blood bank (acid extract, not purified)", "T1 sequence (P14555 21-144)": "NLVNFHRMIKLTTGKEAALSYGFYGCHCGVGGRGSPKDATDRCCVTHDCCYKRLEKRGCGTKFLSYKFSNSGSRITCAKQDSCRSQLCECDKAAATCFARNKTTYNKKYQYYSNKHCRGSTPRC", "experiment": "Inhibition of cell free human platelet PLA2 (hydrolysis of [3H]-AA labelled E. coli phospholipids)", "type": "biochemical", "conditions": "30 min", "method": "The ability of the compounds in the scope of the invention to inhibit the activity of cell free human platelet PLA2 enzyme is measured in the following in vitro assay.\nE. coli, cultured to exponential growth, are sedimented for 15 minutes at 10,000 g and resuspended in sterile isotonic saline (1-3 ml). 10-25 μCi uniformly labeled [^3 H]-arachidonic acid (AA) is added to a sterile flask, evaporated by N2 and resolubilized with 0.3 ml 20% fatty acid-free bovine serum albumen (BSA). 75-100 ml of nutrient broth and 1 ml E. coli are then added to each flask and incubated for 2-3 hours at 37° C. [^3 H]-AA labelled E. coli are then sedimented, suspended in saline and added to fresh nutrient broth and incubated for 1.5 hours at 37° C. to complete [^3 H]-AA incorporation into the phospholipids. After overnight refrigeration of cultures, E. coli are again sedimented, suspended in saline and autoclaved for 15 minutes at 120° C. E. coli cultures are washed twice with saline (first wash contains 1 % BSA) and resuspended in saline. Non-labelled E. coli cultures are also prepared in the same manner. Cell number is determined by measuring the optical density at […] (3×10 cell/ml=1 O.D.). The amount of radioactivity associated with cells is determined by counting a defined volume of cell suspension. The specific activity is subsequently adjusted by adding non-labelled E. coli to yield 2-4×10 cpm per 1×10^10 E. coli.\nExpired human platelets from the blood bank are centrifuged for 15 minutes at 200 g to obtain a platelet rich fraction and to remove the red blood cells. Platelets are sedimented for 15 minutes at 2500 g and the plasma is removed before adding cold 0.18N H2 SO4 (4 ml/unit). Platelets are homogenized, incubated for 1 hour at 4° C., homogenized again and centrifuged for 15 minutes at 10,000 g. The PLA2 enriched supernatant fluid is removed and the amount of protein is determined by the Lowry method. The preparation is divided into various portions and stored at -20° C.\nThe assay measures the hydrolysis of E. coli membrane phospholipids and the release of free [^3 H]-AA from the C-2 position of phospholipids by human platelet PLA2. To ice cold 15×100 mm test tubes, the following additions are made; 2.5×10^8 E. coli (equivalent to 5 nmol phospholipid), 5 mM Ca++, 100 mM Tris buffer (pH=7.4), 100 μg platelet extract (or an amount to produce 20-30% hydrolysis), drug or vehicle. Incubation are carried out at 37° C. in a shaking water bath for 30 minutes. The reaction is terminated by the addition of 2 volumes of tetrahydrofuran (THF) and the mixture is vortexed. Hydrolyzed [^3 H]-AA is separated from unhydrolyzed phospholipid by solid phase extraction using Bond elute NH2 columns (Analytichem Intermat.). Columns are conditioned with 0.5 ml THF followed by 0.5 ml THF:H2 O (2.0:0.1 ml v/v). Samples are loaded onto columns and hydrolyzed [^3 H]-AA is eluted with 1 ml THF:glacial acetic acid (98.0:2.0 ml v/v). The elutant is transferred to vials, 10 ml Optifluor is added and the radioactivity is determined by liquid scintillation counting.\nTreatments are corrected for non-enzymatic hydrolysis by subtracting the dpms in treatments containing no enzyme. Mean [^3 H]-AA dpm is determined and a percent inhibition relative to vehicle treated samples is calculated.\nThe percent hydrolysis is calculated by the following equation: [formula]"}, "[2]": {"test_system": "rat carrageenan paw edema", "experiment": "Rat carrageenan paw edema", "type": "in vivo, rat (Sprague-Dawley)", "conditions": "at 50 mg/kg (peroral), 1 h prior to carrageenan; 3 h", "method": "The compounds in the scope of the invention are further tested in the rat carrageenan paw edema to determine their ability to inhibit the acute inflammatory response.\n[…] male Sprague-Dawley rats, in groups of 6 animals are injected subcutaneously in the right paw with 0.1 ml of 1% carrageenan at zero time. Mercury plethysmographic readings (ml) of the paw are made at zero time and 3 hours later. Test compounds are suspended or dissolved in 0.5% methylcellulose and given perorally 1 hour prior to carrageenan administration.\nThe increase in paw volume (edema in ml.) produced by the carrageenan is measured. Paw edema is calculated (3 hour volume minus zero time volume), and percent inhibition of edema is determined. Unpaired Student's t-test is used to determine statistical significance."}, "[3]": {"test_system": "TPA-induced mouse ear edema", "experiment": "TPA-induced murine ear edema test", "type": "in vivo, mouse (Swiss Webster)", "conditions": "1 mg/ear, 30 min after TPA, measured 4 h after TPA"}, "[4]": {"test_system": "synthesis of the arachidonic acid cyclooxygenase oxidation product TxB2", "experiment": "Inhibition of TxB2 synthesis (cyclooxygenase product) by rat polymorphonuclear leukocytes", "type": "cell-based, rat (female Wistar)", "conditions": "Leukocyte, A23187-stimulated rat PMN"}}, "data": [{"smiles": "COC(=O)C1(C(=O)CCCCOc2ccc(Cl)cc2)CO1", "note": "(centres unmarked) [Example 6A, 2-[5-(4-Chlorophenoxy)-1-oxopentyl]-2-oxiranecarboxylic acid methyl ester]", "values": [{"measurement": "inhibition at 50 µM", "setting": "[1]; at 50 μM, pH 7.4, 37° C.", "value": 83.2, "unit": "%"}, {"measurement": "IC50", "setting": "[1]; cell free human platelet PLA2, pH 7.4, 37° C., read-out: IC50 (PLA2)", "value": 10.7, "unit": "µM"}, {"measurement": "% Inhibition of paw edema", "setting": "[2]", "value": 50, "unit": "%"}, {"measurement": "Mouse Ear Edema Assay, % Change from Control, TOPICAL, TPA", "setting": "[3]", "value": -42, "unit": "%"}, {"measurement": "inhibition at 10 µM", "setting": "[4]", "value": 30, "unit": "%"}]}]}
